# Measurements as given in US12486278B2, “MASP-2 inhibitors and methods of use” (Omeros Corporation, priority 2019, dated 2025).
# Counter-ions that a name gives are not always drawn.
# Molecular target: T1, MASP-2 (CCP1-CCP2-SP) (Homo sapiens, UniProt O00187)
# T1 construct: 15 μL of Enzyme MASP-2 (CCP1-CCP2-SP) in Assay Buffer
# Experiment: Enzymatic Assay for MASP-2 (fluorogenic substrate)
# Format: biochemical
# Details: fluorogenic substrate based on C2 cleavage site; room temperature, 20 min; 20 mM HEPES pH 7.4, 140 mM NaCl, 0.1% Tween 20
# Description: The MASP-2 assay utilizes a fluorogenic substrate, based on the cleavage site for its natural substrate C2. The assay is run at room temperature in an assay buffer containing 20 mM HEPES, pH 7.4, 140 mM NaCl and 0.1% Tween 20. Assay parameters are adjusted such that the assay is linear with respect to time, enzyme, and substrate concentrations. Under these optimized assays conditions, IC50 values are equivalent to Ki values, except in a few cases of “tight binding” inhibitors. Cases of “tight binding” or possible “slow binding” inhibitors are handled by the methods described in Copeland R. A. (2013) Evaluation of Enzyme Inhibitors in Drug Discovery. 2nd Ed., John Wiley and Sons, Inc., Chapters 5-7.
# The MASP-2 assay protocol is carried out as follows. Test compounds are serially diluted in DMSO and then 100 nL of each dilution is transferred to the assay plate(s). 10 μL of Assay Buffer is added, followed by 15 μL of Enzyme MASP-2 (CCP1-CCP2-SP) in Assay Buffer. 15 μL of Substrate in Assay Buffer is then added and mixed to start the reactions. After 20 min at room temperature, 15 μL of a stop solution (0.1 M acetic acid) is added, mixed and the plates are read on a SpectraMax i3x Microplate Reader and exported as Excel files. Each assay plate included a “no inhibitor” (DMSO Only) control, a “no enzyme” control and a reference inhibitor control. % Activity values=100*(average test comp. fluorescence−average “no enzyme” fluorescence)/(average “DMSO only” fluorescence−average “no enzyme” fluorescence). IC50 and Ki values are very reproducible, falling well within ±2-fold.
# T1 sequence (O00187 445-686 limits assumed): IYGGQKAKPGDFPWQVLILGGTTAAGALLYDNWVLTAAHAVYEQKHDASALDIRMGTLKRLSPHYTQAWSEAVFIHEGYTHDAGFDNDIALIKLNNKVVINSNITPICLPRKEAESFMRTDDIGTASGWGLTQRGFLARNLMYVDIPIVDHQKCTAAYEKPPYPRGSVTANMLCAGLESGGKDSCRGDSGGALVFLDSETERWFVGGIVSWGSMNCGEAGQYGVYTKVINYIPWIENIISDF
# T1 sequence (O00187 298-444 partner limits assumed): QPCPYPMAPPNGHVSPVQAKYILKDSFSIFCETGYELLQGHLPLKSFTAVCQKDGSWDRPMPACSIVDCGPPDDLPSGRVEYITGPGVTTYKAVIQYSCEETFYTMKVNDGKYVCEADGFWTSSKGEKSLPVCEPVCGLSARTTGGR
row,SMILES,Ki [nM]
1,"Cc1nc(N)ccc1CNC(=O)[C@H](C)NC(=O)[C@H]1C[C@H](Cc2cccc(-c3ccc(F)cc3)c2)CN1 [Compound I-81, (2R,4S)—N—((S)-1-(((6-Amino-2-Methylpyridin-3-Yl)Methyl)Amino)-1-Oxopropan-2-Yl)-4-((4′-Fluoro-[1,1′-Biphenyl]-3-Yl)Methyl)Pyrrolidine-2-Carboxamide Di-Trifluoroacetate]",< 500
2,"C[C@H](NC(=O)[C@H]1C[C@@H](c2cc3ccccc3s2)CCN1)C(=O)NCc1ccc(C(=N)N)cc1 [Compound I-71, (2R,4S)-4-(Benzo[B]Thiophen-2-Yl)-N—((S)-1-((4-Carbamimidoylbenzyl)Amino)-1-Oxopropan-2-Yl)Piperidine-2-Carboxamide Di-Trifluoroacetate]",< 500
3,"Cc1nc(N)ccc1CNC(=O)[C@H](C)NC(=O)[C@H]1C[C@H](Cc2ccc(C(F)(F)F)s2)CN1 [Compound I-89, (2R,4R)—N—((S)-1-(((6-Amino-2-Methylpyridin-3-Yl)Methyl)Amino)-1-Oxopropan-2-Yl)-4-((5-(Trifluoromethyl)Thiophen-2-Yl)Methyl)Pyrrolidine-2-Carboxamide Dihydrochloride]",< 500
4,"C[C@H](NC(=O)[C@H]1C[C@@H](c2ccc(-c3ccccc3)cc2)CCN1)C(=O)NCc1cc(Cl)ccc1-n1cnnn1 [Compound I-102, (2R,4S)-4-([1,1′-Biphenyl]-4-yl)-N—((S)-1-((5-chloro-2-(1H-tetrazol-1-yl)benzyl)amino)-1-oxopropan-2-yl)piperidine-2-carboxamide trifluoroacetate]",< 500
5,"C[C@H](NC(=O)[C@H]1C[C@@H](c2ccncc2)CN1)C(=O)NCc1ccc(C(=N)N)cc1 [Compound I-95, (2R,4S)—N—((S)-1-((4-carbamimidoylbenzyl)amino)-1-oxopropan-2-yl)-4-(pyridin-4-yl)pyrrolidine-2-carboxamide di-trifluoroacetate]",500 to 2500
6,"C[C@H](NC(=O)[C@H]1C[C@H](Cc2ccc(Cl)s2)CN1)C(=O)NCc1cnc2[nH]cc(Cl)c2c1 [Compound I-83, (2R,4R)—N—((S)-1-(((3-Chloro-1H-Pyrrolo[2,3-B]Pyridin-5-Yl)Methyl)Amino)-1-Oxopropan-2-Yl)-4-((5-Chlorothiophen-2-Yl)Methyl)Pyrrolidine-2-Carboxamide Dihydrochloride]",< 500
7,"C[C@H](NC(=O)[C@H]1C[C@H](Oc2ccccc2)CN1)C(=O)NCc1cc2cnccc2[nH]1 [Compound I-97, (2R,4S)—N—((S)-1-(((1H-Pyrrolo[3,2-c]pyridin-2-yl)methyl)amino)-1-oxopropan-2-yl)-4-phenoxypyrrolidine-2-carboxamide di-trifluoroacetate]",< 500
8,"Cc1nc(N)ccc1CNC(=O)[C@H](C)NC(=O)[C@H]1C[C@@H](c2ccccc2)CCN1CCNS(C)(=O)=O [Compound I-41, (2R,4S)—N—((S)-1-(((6-Amino-2-Methylpyridin-3-Yl)Methyl)Amino)-1-Oxopropan-2-Yl)-1-(2-(Methylsulfonamido)Ethyl)-4-Phenylpiperidine-2-Carboxamide Di-Trifluoroacetate]",2500 to 10000
9,"C[C@H](NC(=O)[C@H]1C[C@@H](c2cccc(-n3cccn3)c2)CCN1)C(=O)NCc1cc(Cl)ccc1-n1cnnn1 [Compound I-79, (2R,4S)-4-(3-(1H-Pyrazol-1-Yl)Phenyl)-N—((S)-1-((5-Chloro-2-(1H-Tetrazol-1-Yl)Benzyl)Amino)-1-Oxopropan-2-Yl)Piperidine-2-Carboxamide Dihydrochloride]",< 500
10,"CCOC(=O)CCN1CC[C@H](c2ccccc2)C[C@@H]1C(=O)N[C@@H](C)C(=O)NCc1cc(Cl)ccc1-n1cnnn1 [Compound I-28, Ethyl 3-((2R,4S)-2-(((S)-1-((5-Chloro-2-(1H-Tetrazol-1-Yl)Benzyl)Amino)-1-Oxopropan-2-Yl)Carbamoyl)-4-Phenylpiperidin-1-Yl)Propanoate]",2500 to 10000
11,"C[C@H](NC(=O)[C@H]1C[C@@H](c2ccccc2)CCN1CCCP(=O)(O)O)C(=O)NCc1cc(Cl)ccc1-n1cnnn1 [Compound I-40, (3-((2R,4S)-2-(((S)-1-((5-Chloro-2-(1H-Tetrazol-1-Yl)Benzyl)Amino)-1-Oxopropan-2-Yl)Carbamoyl)-4-Phenylpiperidin-1-Yl)Propyl)Phosphonic Acid Di-Trifluoroacetate]",500 to 2500
12,"CCN1C[C@@H](Cc2ccc(F)c(Cl)c2)C[C@@H]1C(=O)N[C@@H](C)C(=O)NCc1cnc2[nH]cc(Cl)c2c1 [Compound I-27, (2R,4S)—N—((S)-1-(((3-Chloro-1H-Pyrrolo[2,3-B]Pyridin-5-Yl)Methyl)Amino)-1-Oxopropan-2-Yl)-4-(3-Chloro-4-Fluorobenzyl)-1-Ethylpyrrolidine-2-Carboxamide]",< 500
13,"C[C@H](NC(=O)[C@H]1C[C@@H](c2ccccc2)CCN1CCP(=O)(O)O)C(=O)NCc1ccc(C(=N)N)cc1 [Compound I-38, (2-((2R,4S)-2-(((S)-1-((4-Carbamimidoylbenzyl)Amino)-1-Oxopropan-2-Yl)Carbamoyl)-4-Phenylpiperidin-1-Yl)Ethyl)Phosphonic Acid Di-Trifluoroacetate]",< 500
14,"Cc1nc(N)ccc1CNC(=O)[C@H](CO)NC(=O)[C@H]1C[C@H](Cc2ccccc2)CN1 [Compound I-57, (2R,4S)—N—((S)-1-(((6-Amino-2-Methylpyridin-3-Yl)Methyl)Amino)-3-Hydroxy-1-Oxopropan-2-Yl)-4-Benzylpyrrolidine-2-Carboxamide Dihydrochloride]",< 500
15,"C[C@H](NC(=O)[C@H]1C[C@@H](c2ccc(-c3cccnc3)cc2)CCN1)C(=O)NCc1ccc(C(=N)N)cc1 [Compound I-72, (2R,4S)—N—((S)-1-((4-Carbamimidoylbenzyl)Amino)-1-Oxopropan-2-Yl)-4-(4-(Pyridin-3-Yl)Phenyl)Piperidine-2-Carboxamide Di-Trifluoroacetate]",< 500
16,"C[C@H](NC(=O)[C@H]1C[C@@H](c2ccccc2)CCN1)C(=O)NCc1ccc(C#N)s1 [Compound I-92, (2R,4S)—N—((S)-1-(((5-Cyanothiophen-2-yl)methyl)amino)-1-oxopropan-2-yl)-4-phenylpiperidine-2-carboxamide hydrochloride]",2500 to 10000
17,"Cc1nc(N)ccc1CNC(=O)[C@H](C)NC(=O)[C@H]1C[C@H](Cc2ccn(C)c(=O)c2)CN1 [Compound I-53, (2R,4S)—N—((S)-1-(((6-Amino-2-Methylpyridin-3-Yl)Methyl)Amino)-1-Oxopropan-2-Yl)-4-((1-Methyl-2-Oxo-1,2-Dihydropyridin-4-Yl)Methyl)Pyrrolidine-2-Carboxamide Di-Trifluoroacetate]",< 500
18,"C[C@H](NC(=O)[C@H]1C[C@H](c2ccccc2)CN1)C(=O)NCc1cc2ncccc2[nH]1 [Compound I-6, (2R,4R)—N—((S)-1-(((1H-Pyrrolo[3,2-b]pyridin-2-yl)methyl)amino)-1-oxopropan-2-yl)-4-phenylpyrrolidine-2-carboxamide di-trifluoroacetate]",500 to 2500
19,C[C@H](NC(=O)[C@H]1C[C@@H](c2ccc(F)cc2)CCN1)C(=O)NCc1ccc(C(=N)N)cc1 [Compound I-67],< 500
20,"Cc1nc(N)ccc1CNC(=O)[C@H](C)NC(=O)[C@H]1C[C@H](Cc2ccc(F)c(Cl)c2F)CN1 [Compound I-88, (2R,4S)—N—((S)-1-(((6-Amino-2-Methylpyridin-3-Yl)Methyl)Amino)-1-Oxopropan-2-Yl)-4-(3-Chloro-2,4-Difluorobenzyl)Pyrrolidine-2-Carboxamide Dihydrochloride]",< 500
21,"Cc1nc(N)ccc1CNC(=O)[C@@H]1COCCN1C(=O)[C@H]1C[C@H](Cc2ccccc2)CN1 [Compound I-12, (S)—N-((6-Amino-2-Methylpyridin-3-Yl)Methyl)-4-((2R,4S)-4-Benzylpyrrolidine-2-Carbonyl)Morpholine-3-Carboxamide Di-Trifluoroacetate]",500 to 2500
22,"C[C@H](NC(=O)[C@H]1C[C@@H](c2ccccc2)CCN1CCNS(C)(=O)=O)C(=O)NCc1ccc(C(=N)N)cc1 [Compound I-43, (2R,4S)—N—((S)-1-((4-Carbamimidoylbenzyl)Amino)-1-Oxopropan-2-Yl)-1-(2-(Methylsulfonamido)Ethyl)-4-Phenylpiperidine-2-Carboxamide Di-Trifluoroacetate]",< 500
23,"COc1cccc([C@@H]2CN[C@@H](C(=O)N[C@@H](C)C(=O)NCc3ccc(C(=N)N)cc3)C2)c1 [Compound I-16, (2R,4R)—N—((S)-1-((4-Carbamimidoylbenzyl)Amino)-1-Oxopropan-2-Yl)-4-(3-Methoxyphenyl)Pyrrolidine-2-Carboxamide Dihydrochloride]",< 500
24,"C[C@H](NC(=O)[C@H]1C[C@@H](c2ccccc2)CCN1CCP(=O)(O)O)C(=O)NCc1cc2cnccc2[nH]1 [Compound I-39, (2-((2R,4S)-2-(((S)-1-(((1H-Pyrrolo[3,2-C]Pyridin-2-Yl)Methyl)Amino)-1-Oxopropan-2-Yl)Carbamoyl)-4-Phenylpiperidin-1-Yl)Ethyl)Phosphonic Acid Di-Trifluoroacetate]",< 500
